Reference: patent publication US20070249620A1, “Urea Derivative” (priority 2004, published 2007)

What was measured:
[1] = target: T1, mouse DGAT1 (Mus musculus, UniProt Q9Z2A7); test: DGAT1 inhibitory effect test (microsome fraction, [14C]-oleoyl-CoA, triglyceride radioactivity by TLC); type: biochemical; conditions: 0.5 h; concentration of the test compound 0.1 μg/ml; mouse DGAT1 microsomes, 23° C., 30 minutes; read-out: Inhibitory ratio
T1 construct: made in house; host or cells: insect cells (High Five, Sf9, Sf21, etc.), baculovirus expression system (Invitrogen)
T1 sequence (Q9Z2A7 1-498): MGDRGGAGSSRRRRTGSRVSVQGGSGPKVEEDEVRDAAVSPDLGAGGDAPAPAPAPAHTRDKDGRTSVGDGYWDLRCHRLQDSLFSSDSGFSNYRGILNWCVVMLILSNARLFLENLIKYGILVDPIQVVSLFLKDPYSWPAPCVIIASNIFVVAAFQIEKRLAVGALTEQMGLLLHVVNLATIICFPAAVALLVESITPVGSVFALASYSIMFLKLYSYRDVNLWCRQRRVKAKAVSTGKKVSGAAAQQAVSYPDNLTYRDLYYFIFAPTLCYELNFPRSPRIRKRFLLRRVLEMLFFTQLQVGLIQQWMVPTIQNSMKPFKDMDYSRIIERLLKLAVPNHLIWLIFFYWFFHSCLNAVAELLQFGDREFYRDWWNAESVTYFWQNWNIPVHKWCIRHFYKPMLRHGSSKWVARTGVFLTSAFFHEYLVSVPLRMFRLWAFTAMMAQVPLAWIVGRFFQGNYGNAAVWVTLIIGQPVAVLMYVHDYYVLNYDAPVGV
Description: The cDNA which encodes mouse DGAT1 was cloned from a mouse cDNA library by polymerase chain reaction (hereinafter referred to as “PCR”) and introduced into an insect cell virus vector (baculovirus expression system, Invitrogen). After insect cells (High Five, Sf9, Sf21, etc., Invitrogen) were infected with the virus, the cells were collected in buffer A [0.1M sucrose, 50 mM KCl, 40 mM potassium phosphate (pH 7.4), 30 mM EDTA, 1% Protease inhibitor cocktail (SIGMA, P-8340)] and crushed with a Polytron homogenizer. The supernatant obtained by subjecting the homogenate to low speed centrifugal processing (10,000 ×g, 30 minutes) was further subjected to higher-speed centrifugal processing (100,000 ×g, 60 minutes) and the precipitate was resuspended in buffer A as the microsome fraction and used as DGAT1 enzyme. The DGAT1 enzyme was divided into small volumes and stored at −80° C.
(2) DGAT1 Inhibitory Effect Test
The reaction liquid of the following composition [175 mM Tris-HCl (pH 8.0), 8 mM MgCl2, 1 mg/ml BSA, 0.5 mM 1,2-dioleoyl-sn-glycerol (EtOH solution of 10-fold concentration, 10% added), 30 μM[14C]-oleoyl-CoA (about 50 mCi/mmol), 0.5% triton X-100, DGAT1 enzyme (10 μg) obtained in Test Example 1(1), test compound or vehicle (DMSO/MeOH, 7:3 solution, 5% added), total volume 50 μl] was incubated at room temperature (23° C.) for 30 minutes. A reaction terminating solution (70 μl) consisting of isopropanol/1-heptane/water (80:20:2, v/v/v) was added to the reaction solution and stirred, and subsequently stirred with water (30 μl) and 1-heptane (100 μl). The 1-heptane layer (50 μl) was spotted onto a TLC plate and developed with a developing solvent consisting of 1-hexane/diethyl ether/acetic acid (85:15:1, v/v/v). Radioactivity of triglyceride fraction was quantified by BAS2000 bio image analyzer (Fuji Film) and the inhibitory effect of the test compounds was calculated by the following formula through comparison with control. Here, radioactivity at no reaction (0 minutes incubation) was assumed as background. Inhibitory ratio=100−[(Radioactivity when test compound was added)−(Background)]/[(Radioactivity by control)−(Background)]×100

SMILES | inhibition at 0.1 µg/mL [1] [%] | melting point
CCOc1ccccc1NC(=O)Nc1ccc(N2CCN(C(=O)Nc3ccccc3C(F)(F)F)CC2)cc1 [Example 80, 4-{4-[3-(2-ethoxy-phenyl)-ureido]-phenyl}-piperazine-1-carboxylic acid (2-trifluoromethyl-phenyl)-amide] | ≥ 50 | 201 to 203 °C
COc1ccc(F)cc1NC(=O)Nc1ccc(N2CCN(C(=O)Nc3ccc(OCCO)cc3C(F)(F)F)CC2)cc1 [Example 212, 4-{4-[3-(5-fluoro-2-methoxy-phenyl)-ureido]-phenyl}-piperazine-1-carboxylic acid [4-(2-hydroxy-ethoxy)-2-trifluoromethyl-phenyl]-amide] | ≥ 50 | 140 to 141 °C
CCOc1ccccc1NC(=O)Nc1ccc(N2CCN(C(=O)Nc3c(C)cccc3OC)CC2)cc1 [Example 183, 4-{4-[3-(2-ethoxy-phenyl)-ureido]-phenyl}-piperazine-1-carboxylic acid (2-methoxy-6-methyl-phenyl)-amide] | ≥ 50 | 169 to 171 °C
COc1ccc(C)cc1NC(=O)Nc1ccc(N2CCN(C(=O)Nc3ccc(OCCO)cc3F)CC2)cc1 [Example 210, 4-{4-[3-(2-methoxy-5-methyl-phenyl)-ureido]-phenyl}-piperazine-1-carboxylic acid [2-fluoro-4-(2-hydroxy-ethoxy)-phenyl]-amide] | ≥ 50 | 214 to 215 °C
COc1ccc(C)cc1NC(=O)Nc1ccc(N2CCN(C(=O)Nc3ccc(OCCO)cc3C)CC2)nc1 [Example 219, 4-{5-[3-(2-methoxy-5-methyl-phenyl)-ureido]-pyridin-2-yl}-piperazine-1-carboxylic acid [4-(2-hydroxy-ethoxy)-2-methyl-phenyl]-amide] | ≥ 50 | 189 to 190 °C
CCc1ccccc1NC(=O)N1CCN(c2ccc(NC(=O)Nc3cc(C)ccc3OC)cc2)CC1 [Example 58, 4-{4-[3-(2-methoxy-5-methyl-phenyl)-ureido]-phenyl}-piperazine-1-carboxylic acid (2-ethyl-phenyl)-amide] | ≥ 50 | 220 to 221 °C
CCOc1ccccc1NC(=O)Nc1ccc(N2CCN(C(=O)Nc3c(C)cccc3C)CC2)cc1 [Example 116, 4-{4-[3-(2-ethoxy-phenyl)-ureido]-phenyl}-piperazine-1-carboxylic acid (2,6-dimethyl-phenyl)-amide] | ≥ 50 | 204 to 205 °C
CCOc1ccccc1NC(=O)Nc1ccc(N2CCN(C(=O)Nc3ccc(OC)cc3C)CC2)nc1 [Example 145, 4-{5-[3-(2-ethoxy-phenyl)-ureido]-pyridin-2-yl}-piperazine-1-carboxylic acid (4-methoxy-2-methyl-phenyl)-amide] | ≥ 50 | 166 to 168 °C
COc1ccc(C)cc1NC(=O)Nc1ccc(N2CCN(C(=O)Nc3c(C)cc(C)cc3C)CC2)cc1 [Example 88, 4-{4-[3-(2-methoxy-5-methyl-phenyl)-ureido]-phenyl}-piperazine-1-carboxylic acid (2,4,6-trimethyl-phenyl)-amide] | ≥ 50 | 215 to 217 °C
CCOc1ccc(F)cc1NC(=O)Nc1ccc(N2CCN(C(=O)Nc3c(C)cccc3C)CC2)cc1 [Example 92, 4-{4-[3-(2-ethoxy-5-fluoro-phenyl)-ureido]-phenyl}-piperazine-1-carboxylic acid (2,6-dimethyl-phenyl)-amide] | ≥ 50 | 205 to 206 °C
COc1ccc(NC(=O)N2CCN(c3ccc(NC(=O)Nc4cc(Cl)ccc4OC)cc3)CC2)c(C)c1 [Example 109, 4-{4-[3-(5-chloro-2-methoxy-phenyl)-ureido]-phenyl}-piperazine-1-carboxylic acid (4-methoxy-2-methyl-phenyl)-amide] | ≥ 50 | 225 to 226 °C
Cc1cccc(Cl)c1NC(=O)N1CCN(c2ccc(NC(=O)NC3CCCCC3)cc2)CC1 [Example 207, 4-[4-(3-cyclohexyl-ureido)-phenyl]-piperazine-1-carboxylic acid (2-chloro-6-methyl-phenyl)-amide] | ≥ 50 | > 260 °C (dec.)
CCOc1ccc(F)cc1NC(=O)Nc1ccc(N2CCN(C(=O)OC(C)(C)C)CC2)nc1 [Example 46, 4-{5-[3-(2-ethoxy-5-fluoro-phenyl)-ureido]-pyridin-2-yl}-piperazine-1-carboxylic acid tert-butyl ester] | ≥ 50 | 180 °C

Results, then the compound that gave them:

inhibition at 0.1 µg/mL [1] [%] | melting point | SMILES
≥ 50 | 114 to 116 °C | COc1cc(NC(=O)Nc2ccc(N3CCN(C(=O)Nc4ccc(OCCO)cc4Cl)CC3)cc2)cc(OC)c1 [Example 250, 4-{4-[3-(3,5-dimethoxy-phenyl)-ureido]-phenyl}-piperazine-1-carboxylic acid [2-chloro-4-(2-hydroxy-ethoxy)-phenyl]-amide]
≥ 50 | 107 to 111 °C | COc1ccccc1NC(=O)Nc1ccc2c(c1)CCN(C(=O)Nc1ccc(OCC(O)CO)cc1Cl)C2 (stereo not shown) [Example 284, 6-[3-(2-methoxy-phenyl)-ureido]-3,4-dihydro-1H-isoquinoline-2-carboxylic acid [2-chloro-4-(2,3-dihydroxy-propoxy)-phenyl]-amide]
≥ 50 | 134 to 136 °C | COc1ccccc1NC(=O)Nc1ccc(N2CCN(C(=O)Nc3ccc(OCCO)cc3Cl)CC2)cc1 [Example 251, 4-{4-[3-(2-methoxy-phenyl)-ureido]-phenyl}-piperazine-1-carboxylic acid [2-chloro-4-(2-hydroxy-ethoxy)-phenyl]-amide]
≥ 50 | 130 to 135 °C | COc1ccccc1NC(=O)Nc1ccc2c(c1)CCN(C(=O)Nc1ccc(OCCO)cc1Cl)C2 [Example 265, 6-[3-(2-methoxy-phenyl)-ureido]-3,4-dihydro-1 H-isoquinoline-2-carboxylic acid [2-chloro-4-(2-hydroxy-ethoxy)-phenyl]-amide]
≥ 50 | 179 to 181 °C | COc1ccc(C)cc1NC(=O)Nc1ccc(C2CCN(C(=O)Nc3ccc(OCC(O)CO)cc3Cl)CC2)cc1 (stereo not shown) [Example 283, 4-{4-[3-(2-methoxy-5-methyl-phenyl)-ureido]-phenyl}-piperidine-1-carboxylic acid [2-chloro-4-(2,3-dihydroxy-propoxy)-phenyl]-amide]
≥ 50 | 170 to 175 °C | O=C(Nc1ccc(C2CCN(C(=O)Nc3ccc(OCC(O)CO)cc3Cl)CC2)cc1)Nc1ccccc1F (stereo not shown) [Example 292, 4-{4-[3-(2-fluoro-phenyl)-ureido]-phenyl}-piperidine-1-carboxylic acid [2-chloro-4-(2,3-dihydroxy-propoxy)-phenyl]-amide]
≥ 50 | 213 to 217 °C | O=C(Nc1ccc(N2CCN(C(=O)Nc3ccc(OCCO)cc3Cl)CC2)cc1)Nc1ccccc1F [Example 255, 4-{4-[3-(2-fluoro-phenyl)-ureido]-phenyl}-piperazine-1-carboxylic acid [2-chloro-4-(2-hydroxy-ethoxy)-phenyl]-amide]
